# Data published in US20030199431A1, “Modified peptide nucleic acid (PNA) molecules” (priority 1999, published 2003).
# Like-named read-outs stand apart in the source and are kept apart here.
# Tests used:
# E. coli K12 [1] = type: cell-based, Escherichia coli
# Protocol: To test the effect of a Peptide without a PNA, peptide no. 2339, H-KFFKFFKFF-OH (SEQ ID NO: 1), was added to E. coli K12 in 10% and 100% medium (Mueller-Hinton broth).
# test culture = type: cell-based
# E. coli K12 [2] = type: cell-based, Escherichia coli; remark: listed apart in the source
substance,measurement,setting,value
H-KFFKFFKFF-OH [Peptide 2339],Bacterial growth inhibition,"E. coli K12 [1]; Peptide 100 nM, 4.0 × 10^3 bacteria/ml, 10% medium",− (Lagphase extended less than five times;)
same,Bacterial growth inhibition,"E. coli K12 [1]; Peptide 100 nM, 4.0 × 10^4 bacteria/ml, 10% medium",− (Lagphase extended less than five times;)
same,Bacterial growth inhibition,"E. coli K12 [1]; Peptide 100 nM, 7.9 × 10^3 bacteria/ml, 10% medium",− (Lagphase extended less than five times;)
same,Bacterial growth inhibition,"E. coli K12 [1]; Peptide 100 nM, 16 bacteria/ml, 100% medium",− (Lagphase extended less than five times)
same,Bacterial growth inhibition,"E. coli K12 [1]; Peptide 100 nM, 160 bacteria/ml, 100% medium",− (Lagphase extended less than five times)
same,Bacterial growth inhibition,"E. coli K12 [1]; Peptide 100 nM, 1600 bacteria/ml, 100% medium",− (Lagphase extended less than five times)
same,Bacterial growth inhibition,"E. coli K12 [1]; Peptide 300 nM, 4.0 × 10^3 bacteria/ml, 10% medium",− (Lagphase extended less than five times;)
same,Bacterial growth inhibition,"E. coli K12 [1]; Peptide 300 nM, 4.0 × 10^4 bacteria/ml, 10% medium",− (Lagphase extended less than five times;)
same,Bacterial growth inhibition,"E. coli K12 [1]; Peptide 300 nM, 7.9 × 10^3 bacteria/ml, 10% medium",− (Lagphase extended less than five times;)
same,Bacterial growth inhibition,"E. coli K12 [1]; Peptide 300 nM, 16 bacteria/ml, 100% medium",− (Lagphase extended less than five times)
same,Bacterial growth inhibition,"E. coli K12 [1]; Peptide 300 nM, 160 bacteria/ml, 100% medium",− (Lagphase extended less than five times)
same,Bacterial growth inhibition,"E. coli K12 [1]; Peptide 300 nM, 1600 bacteria/ml, 100% medium",− (Lagphase extended less than five times)
same,Bacterial growth inhibition,"E. coli K12 [1]; Peptide 500 nM, 4.0 × 10^3 bacteria/ml, 10% medium",− (Lagphase extended less than five times;)
same,Bacterial growth inhibition,"E. coli K12 [1]; Peptide 500 nM, 4.0 × 10^4 bacteria/ml, 10% medium",− (Lagphase extended less than five times;)
same,Bacterial growth inhibition,"E. coli K12 [1]; Peptide 500 nM, 7.9 × 10^3 bacteria/ml, 10% medium",− (Lagphase extended less than five times;)
same,Bacterial growth inhibition,"E. coli K12 [1]; Peptide 500 nM, 16 bacteria/ml, 100% medium",− (Lagphase extended less than five times)
same,Bacterial growth inhibition,"E. coli K12 [1]; Peptide 500 nM, 160 bacteria/ml, 100% medium",− (Lagphase extended less than five times)
same,Bacterial growth inhibition,"E. coli K12 [1]; Peptide 500 nM, 1600 bacteria/ml, 100% medium",− (Lagphase extended less than five times)
same,Bacterial growth inhibition,"E. coli K12 [1]; Peptide 700 nM, 4.0 × 10^3 bacteria/ml, 10% medium",− (Lagphase extended less than five times;)
same,Bacterial growth inhibition,"E. coli K12 [1]; Peptide 700 nM, 4.0 × 10^4 bacteria/ml, 10% medium",− (Lagphase extended less than five times;)
same,Bacterial growth inhibition,"E. coli K12 [1]; Peptide 700 nM, 7.9 × 10^3 bacteria/ml, 10% medium",− (Lagphase extended less than five times;)
same,Bacterial growth inhibition,"E. coli K12 [1]; Peptide 700 nM, 16 bacteria/ml, 100% medium",− (Lagphase extended less than five times)
same,Bacterial growth inhibition,"E. coli K12 [1]; Peptide 700 nM, 160 bacteria/ml, 100% medium",− (Lagphase extended less than five times)
same,Bacterial growth inhibition,"E. coli K12 [1]; Peptide 700 nM, 1600 bacteria/ml, 100% medium",− (Lagphase extended less than five times)
same,Bacterial growth inhibition,"E. coli K12 [1]; Peptide 900 nM, 4.0 × 10^3 bacteria/ml, 10% medium",− (Lagphase extended less than five times;)
same,Bacterial growth inhibition,"E. coli K12 [1]; Peptide 900 nM, 4.0 × 10^4 bacteria/ml, 10% medium",− (Lagphase extended less than five times;)
same,Bacterial growth inhibition,"E. coli K12 [1]; Peptide 900 nM, 7.9 × 10^3 bacteria/ml, 10% medium",− (Lagphase extended less than five times;)
same,Bacterial growth inhibition,"E. coli K12 [1]; Peptide 900 nM, 16 bacteria/ml, 100% medium",− (Lagphase extended less than five times)
same,Bacterial growth inhibition,"E. coli K12 [1]; Peptide 900 nM, 160 bacteria/ml, 100% medium",− (Lagphase extended less than five times)
same,Bacterial growth inhibition,"E. coli K12 [1]; Peptide 900 nM, 1600 bacteria/ml, 100% medium",− (Lagphase extended less than five times)
same,Bacterial growth inhibition,"E. coli K12 [1]; Peptide 1100 nM, 4.0 × 10^3 bacteria/ml, 10% medium",− (Lagphase extended less than five times;)
same,Bacterial growth inhibition,"E. coli K12 [1]; Peptide 1100 nM, 4.0 × 10^4 bacteria/ml, 10% medium",− (Lagphase extended less than five times;)
same,Bacterial growth inhibition,"E. coli K12 [1]; Peptide 1100 nM, 7.9 × 10^3 bacteria/ml, 10% medium",− (Lagphase extended less than five times;)
same,Bacterial growth inhibition,"E. coli K12 [1]; Peptide 1100 nM, 16 bacteria/ml, 100% medium",− (Lagphase extended less than five times)
same,Bacterial growth inhibition,"E. coli K12 [1]; Peptide 1100 nM, 160 bacteria/ml, 100% medium",− (Lagphase extended less than five times)
same,Bacterial growth inhibition,"E. coli K12 [1]; Peptide 1100 nM, 1600 bacteria/ml, 100% medium",− (Lagphase extended less than five times)
same,Bacterial growth inhibition,"E. coli K12 [1]; Peptide 1300 nM, 4.0 × 10^3 bacteria/ml, 10% medium",− (Lagphase extended less than five times;)
same,Bacterial growth inhibition,"E. coli K12 [1]; Peptide 1300 nM, 4.0 × 10^4 bacteria/ml, 10% medium",− (Lagphase extended less than five times;)
same,Bacterial growth inhibition,"E. coli K12 [1]; Peptide 1300 nM, 7.9 × 10^3 bacteria/ml, 10% medium",− (Lagphase extended less than five times;)
same,Bacterial growth inhibition,"E. coli K12 [1]; Peptide 1300 nM, 16 bacteria/ml, 100% medium",− (Lagphase extended less than five times)
same,Bacterial growth inhibition,"E. coli K12 [1]; Peptide 1300 nM, 160 bacteria/ml, 100% medium",− (Lagphase extended less than five times)
same,Bacterial growth inhibition,"E. coli K12 [1]; Peptide 1300 nM, 1600 bacteria/ml, 100% medium",− (Lagphase extended less than five times)
same,Bacterial growth inhibition,"E. coli K12 [1]; Peptide 1500 nM, 4.0 × 10^3 bacteria/ml, 10% medium",− (Lagphase extended less than five times;)
same,Bacterial growth inhibition,"E. coli K12 [1]; Peptide 1500 nM, 4.0 × 10^4 bacteria/ml, 10% medium",− (Lagphase extended less than five times;)
same,Bacterial growth inhibition,"E. coli K12 [1]; Peptide 1500 nM, 7.9 × 10^3 bacteria/ml, 10% medium",− (Lagphase extended less than five times;)
same,Bacterial growth inhibition,"E. coli K12 [1]; Peptide 1500 nM, 16 bacteria/ml, 100% medium",− (Lagphase extended less than five times)
same,Bacterial growth inhibition,"E. coli K12 [1]; Peptide 1500 nM, 160 bacteria/ml, 100% medium",− (Lagphase extended less than five times)
same,Bacterial growth inhibition,"E. coli K12 [1]; Peptide 1500 nM, 1600 bacteria/ml, 100% medium",− (Lagphase extended less than five times)
same,Bacterial growth inhibition,"E. coli K12 [1]; Peptide 2500 nM, 4.0 × 10^3 bacteria/ml, 10% medium",− (Lagphase extended less than five times;)
same,Bacterial growth inhibition,"E. coli K12 [1]; Peptide 2500 nM, 4.0 × 10^4 bacteria/ml, 10% medium",− (Lagphase extended less than five times;)
same,Bacterial growth inhibition,"E. coli K12 [1]; Peptide 2500 nM, 7.9 × 10^3 bacteria/ml, 10% medium",− (Lagphase extended less than five times;)
same,Bacterial growth inhibition,"E. coli K12 [1]; Peptide 2500 nM, 16 bacteria/ml, 100% medium",− (Lagphase extended less than five times)
same,Bacterial growth inhibition,"E. coli K12 [1]; Peptide 2500 nM, 160 bacteria/ml, 100% medium",− (Lagphase extended less than five times)
same,Bacterial growth inhibition,"E. coli K12 [1]; Peptide 2500 nM, 1600 bacteria/ml, 100% medium",− (Lagphase extended less than five times)
same,Bacterial growth inhibition,"E. coli K12 [1]; Peptide 5000 nM, 4.0 × 10^3 bacteria/ml, 10% medium","((+)) (Lagphase extended less than five times, but still with growth curve effect)"
same,Bacterial growth inhibition,"E. coli K12 [1]; Peptide 5000 nM, 4.0 × 10^4 bacteria/ml, 10% medium","((+)) (Lagphase extended less than five times, but still with growth curve effect)"
same,Bacterial growth inhibition,"E. coli K12 [1]; Peptide 5000 nM, 7.9 × 10^3 bacteria/ml, 10% medium","((+)) (Lagphase extended less than five times, but still with growth curve effect)"
same,Bacterial growth inhibition,"E. coli K12 [1]; Peptide 5000 nM, 16 bacteria/ml, 100% medium",− (Lagphase extended less than five times)
same,Bacterial growth inhibition,"E. coli K12 [1]; Peptide 5000 nM, 160 bacteria/ml, 100% medium",− (Lagphase extended less than five times)
same,Bacterial growth inhibition,"E. coli K12 [1]; Peptide 5000 nM, 1600 bacteria/ml, 100% medium",− (Lagphase extended less than five times)
same,Bacterial growth inhibition,"E. coli K12 [1]; Peptide 10000 nM, 4.0 × 10^3 bacteria/ml, 10% medium","((+)) (Lagphase extended less than five times, but still with growth curve effect)"
same,Bacterial growth inhibition,"E. coli K12 [1]; Peptide 10000 nM, 4.0 × 10^4 bacteria/ml, 10% medium","((+)) (Lagphase extended less than five times, but still with growth curve effect)"
same,Bacterial growth inhibition,"E. coli K12 [1]; Peptide 10000 nM, 7.9 × 10^3 bacteria/ml, 10% medium","((+)) (Lagphase extended less than five times, but still with growth curve effect)"
same,Bacterial growth inhibition,"E. coli K12 [1]; Peptide 10000 nM, 16 bacteria/ml, 100% medium",− (Lagphase extended less than five times)
same,Bacterial growth inhibition,"E. coli K12 [1]; Peptide 10000 nM, 160 bacteria/ml, 100% medium",− (Lagphase extended less than five times)
same,Bacterial growth inhibition,"E. coli K12 [1]; Peptide 10000 nM, 1600 bacteria/ml, 100% medium",− (Lagphase extended less than five times)
same,Bacterial growth inhibition,"E. coli K12 [1]; Peptide 15000 nM, 4.0 × 10^3 bacteria/ml, 10% medium","((+)) (Lagphase extended less than five times, but still with growth curve effect)"
same,Bacterial growth inhibition,"E. coli K12 [1]; Peptide 15000 nM, 4.0 × 10^4 bacteria/ml, 10% medium","((+)) (Lagphase extended less than five times, but still with growth curve effect)"
same,Bacterial growth inhibition,"E. coli K12 [1]; Peptide 15000 nM, 7.9 × 10^3 bacteria/ml, 10% medium","((+)) (Lagphase extended less than five times, but still with growth curve effect)"
same,Bacterial growth inhibition,"E. coli K12 [1]; Peptide 15000 nM, 16 bacteria/ml, 100% medium",− (Lagphase extended less than five times)
same,Bacterial growth inhibition,"E. coli K12 [1]; Peptide 15000 nM, 160 bacteria/ml, 100% medium",− (Lagphase extended less than five times)
same,Bacterial growth inhibition,"E. coli K12 [1]; Peptide 15000 nM, 1600 bacteria/ml, 100% medium",− (Lagphase extended less than five times)
same,Bacterial growth inhibition,"E. coli K12 [1]; Peptide 20000 nM, 4.0 × 10^3 bacteria/ml, 10% medium",+
same,Bacterial growth inhibition,"E. coli K12 [1]; Peptide 20000 nM, 4.0 × 10^4 bacteria/ml, 10% medium","((+)) (Lagphase extended less than five times, but still with growth curve effect)"
same,Bacterial growth inhibition,"E. coli K12 [1]; Peptide 20000 nM, 7.9 × 10^3 bacteria/ml, 10% medium",+
same,Bacterial growth inhibition,"E. coli K12 [1]; Peptide 20000 nM, 16 bacteria/ml, 100% medium","(+) (Significantly extended lagphase, (more than five times))"
same,Bacterial growth inhibition,"E. coli K12 [1]; Peptide 20000 nM, 160 bacteria/ml, 100% medium",− (Lagphase extended less than five times)
same,Bacterial growth inhibition,"E. coli K12 [1]; Peptide 20000 nM, 1600 bacteria/ml, 100% medium",− (Lagphase extended less than five times)
same,Peptide concentration giving total inhibition of growth,"E. coli K12 [1]; cultures with 7.9×10^3 cells/ml, peptide without PNA","at least 20,000 nM"
same,Peptide concentration at which minimal signs of growth inhibition were detected,E. coli K12 [1]; peptide without PNA,"≥ 5,000 nM"
same,Bacterial growth inhibition,test culture,"− (key: +: Total inhibition of bacterial growth.; (+): Significantly extended lagphase, (more than five times); −: Lagphase extended less than five times;)"
H-LLKKLAKALKG-ahex-ado-CCA TCT AAT CCT-NH2 [PNA 228],Bacterial growth inhibition,E. coli K12 [2],"− (key: +: Total inhibition of bacterial growth.; (+): Significantly extended lagphase, (more than five times); −: Lagphase extended less than five times;)"
